Patent US7297689B2, “Method for preparing peritoneal dialysate” (Tokai University Educational System, priority 1998, dated 2007)
Entries after “also recorded” stand apart in the source; their conditions may differ. Read-outs that look alike come from different tables or passages of the source. Blank lines part the entries; values can stand above or below the molecule they belong to.

Legend:
[1] = tested on: VEGF mRNA; experiment: VEGF mRNA expression in cultured rat mesothelial cells (semiquantitative RT-PCR); assay type: cell-based; conditions: 3 hours
Method: Peritoneum was obtained from 6-week-old male CD (SD) IGS rats (Charles-River, Kanagawa, Japan). Mesothelial cells were isolated based on the method of Hjelle et al. (Hjelle J T et al., Perit Dial Int, 9: 341-347 (1989)) and cultured in Dulbecco's modified Eagle's medium (DMEM) containing 10% fetal bovine serum. The mesothelial cells at passage 7 to 10 were cultured for 3 hours in a CO2 incubator in the presence of various concentrations of glucose degradation products (glyoxal, methylglyoxal (Sigma, St. Louis, Mo.), or 3-deoxyglucosone (kindly provided from Fuji Memorial Research Institute, Otsuka Pharmaceutical Co., Kyoto, Japan). The expression of VEGF mRNA was analyzed by semiquantitative RT-PCR. Total RNA was isolated from the mesothelial cells using Rneasy Mini Kit (Qiagen, Germany). Five micrograms of the RNA was reverse-transcribed using oligo(dT)12-18 primers (Gibco BRL, Gaithersburg, Md.) with 200 units of RNase H-free reverse transcriptase (Superscript II: Gibco BRL) and PCR amplification was performed as described previously (Miyata T et al., J Clin Invest, 93: 521-528 (1994)). The sequences of the primers used for the amplification of rat VEGF were 5′-[…]-3′ (SEQ ID NO: 1) and 5′-[…]-3′ (SEQ ID NO: 2). The amplified product was 310 bp long. The primers used for the amplification of rat glyceraldehyde-3-phosphate dehydrogenase. (G3PDH) were 5′-[…]-3′ (SEQ ID NO: 3) and 5′-[…]-3′ (SEQ ID NO: 4) and amplified a 322 bp fragment. The G3PDH served as an internal RNA control to allow comparison of RNA levels among different specimens. […] PCR products resolved by electrophoresis in 1.5% agarose gel and stained with ethidium bromide were quantified by measuring the signal intensity with a quantification program (NIH image). […] Messenger RNA was determined in triplicate and the results were averaged for each experiment. […] The results were averaged and expressed as mean±S.D. The statistical significance was evaluated by analysis of variance (ANOVA). […]

[2] = tested on: VEGF mRNA; experiment: VEGF mRNA expression and histology of peritoneal tissue of rats given daily intraperitoneal injections; assay type: in vivo, rat; conditions: daily intraperitoneal injection for 10 days
Method: To further assess the biological effects of methylglyoxal on VEGF mRNA expression in the peritoneum in vivo, rats were given various amounts of methylglyoxal into their peritoneal cavity for 10 days. Six-week-old male CD (SD) IGS rats were given a daily intraperitoneal injection of 50 ml/kg of a saline solution containing various concentrations of methylglyoxal for 10 days. Peritoneum was isolated from the parietal walls and investigated for VEGF mRNA expression. Experiments were performed as the above-mentioned in vitro experiments for rat mesothelial cells. However, mRNA was extracted from peritoneal tissues with ISOGEN (Nippon Gene, Tokyo, Japan). In addition, PCR amplification was performed for 28 cycles for VEGF mRNA and for 16 cycles for G3PDH mRNA.

[3] = tested on: VEGF mRNA; experiment: VEGF mRNA expression in human endothelial cells (RT-PCR); assay type: cell-based; conditions: 0 to 400 μM
Method: VEGF mRNA expression was then assessed in endothelial cells cultured in the presence of various concentrations (0 to 400 μM) of methylglyoxal. Experiments were performed as those for rat mesothelial cells. However, primers used for human VEGF amplification were 5′-[…]-3′ (SEQ ID NO: 5) and 5′-[…]-3′ (SEQ ID NO: 6). The amplified fragment was 271 bp long. The same primers were used for human and rat G3PDH amplifications.

[4] = tested on: VEGF protein; experiment: VEGF protein release into culture supernatant (ELISA); assay type: cell-based; conditions: human microvascular endothelial cells, 0, 200, 400 μM, 24 hours
Method: The release of VEGF protein into the culture supernatant was measured by ELISA for […] cultured for 24 hours in the presence of various concentrations of methylglyoxal. Human microvascular endothelial cells were purchased from Kurabo (Osaka, Japan) and cultured in VEGF-depleted EGM-2 medium (Takara, Tokyo, Japan). The cells were incubated with methylglyoxal in the same manner as rat peritoneum mesothelial cells. The VEGF protein in the culture supernatant prepared in duplicate was quantified by enzyme-linked immunosorbent assay (ELISA) using a kit (Quantikine: R&D Systems, Minneapolis, USA) according to the attached manual. The experiment was repeated three times. The results were statistically analyzed as described above.

[5] = generation of carbonyl compounds in peritoneal dialysate during heat sterilization (2,4-DNPH); conditions: acidic and neutral pH, sterilization 121° C.
Excerpt: (§1) Peritoneal dialysates contain a high concentration of glucose as an osmoregulatory agent (1.35-4.0 w/v %). Glucose is unstable to heating and undergoes degradation during heat sterilization or storage. Degradation products of glucose have been reported to include 5-hydroxymethylfurfural (5-HMF), levulinic acid, and acetaldehyde (Richard, J. U. et al., Fund. Appl. Toxic., 4: 843-853 (1984), Nilsson, C. B. et al., Perit. Dial. Int., 13: 208-213 (1993)). The inventors tested aminoguanidine for its inhibiting effect on the generation of carbonyl compounds during heat sterilization of a peritoneal dialysate, by monitoring the quantities of 5-HMF and carbonyl compounds. Since the degree of glucose degradation is affected by pH of the solution, two peritoneal dialysates of acidic pH (pH 5.3) and neutral pH (pH 7.0) were prepared to carry out the experiment. Sterilization temperature was 121° C.
Quantification of carbonyl compounds in the peritoneal dialysate was carried out in the same manner as described in Example 1 by measuring the absorbance after the reaction with 2,4-DNPH (Levine, R. L. et al., Methods Enzymol., 233: 346-357 (1994)). Sterilization temperature was 121° C.

[6] = generation of pentosidine on incubation of peritoneal dialysis effluent; parameters: species or system human; conditions: peritoneal dialysis effluent, 0, 1, 10, 100 mM, 37° C.
Method: An effluent from a peritoneal-dialysis patient, which had been kept overnight, was centrifuged, and the resulting supernatant was sterilized by filtration (pore size; 0.45 μm). Aminoguanidine (Tokyo Kasei Kogyo Co.) was added to the fluid at a final concentration of 0, 1, 10, or 100 mM. The mixture was incubated at 37° C. The incubation period was […] when assaying pentosidine, and 2 weeks when assaying protein carbonyl. The quantitative assay for pentosidine was performed using HPLC (SHIMADZU Co.; LC-10A) after the hydrolysis of proteins in 6 N HCl at 110° C. (T. Miyata et al., 1996, J. Am. Soc. Nephrol, 7:1198-1206; T. Miyata et al., 1996, Proc. Natl. Acad. Aci. USA, 93:2353-2358). The quantitative determination of protein carbonyl was carried out by measuring the absorbance (Nippon Molecular Devices Co.; SPECTRAmax 250) of hydrazone generated by the reaction of a carbonyl group after incubation with 2,4-dinitrophenylhydrazine (2,4-DNPH; Wako Pure Chemical Industries, Ltd.) (Levine, R. L. et al., Methods Enzymol., 233, 346-357 (1994)).

[7] = subcutaneously administered, rat; cited from earlier work
[8] = generation of 5-HMF in peritoneal dialysate during heat sterilization (HPLC); conditions: sterilization 121° C.
Excerpt: as §1
5-HMF was assayed by high performance liquid chromatography (SHIMADZU Co.; LC-10A) (Nilsson, C. B. et al., Perit. Dial. Int., 13: 208-213 (1993)).

[9] = amount of carbonyl compounds other than glucose in peritoneal dialysate (CAPD) effluent, 2,4-DNPH assay; parameters: species or system human; conditions: effluent, 0, 10, 50, 250 mM, unincubated and incubated (37° C. for 15 hours)
Method: The peritoneal dialysate effluent was recovered from the patient and filtered with a filter with a pore size of 0.45 μm. Aminoguanidine (Tokyo Kasei Kogyo Co.) was added to the fluid at a concentration of 0, 10, 50, or 250 mM to prepare a sample solution. An aliquot (1 ml) of the sample solution was added into a plastic tube with a screw cap, and the tube was incubated at 37° C. for 15 hours. The sample solutions were stored at −30° C. prior to the incubation.
Each of 400-μl aliquots of sample solutions was mixed with a 400-μl solution of 0.5 N hydrochloric acid containing 1.5 mM 2,4-DNPH (Wako Pure Chemical Industries, Ltd.), and then, the mixture was stirred at room temperature for 30 minutes to react the carbonyl compound with 2,4-DNPH. […] The aqueous layer was recovered and the absorbance thereof was measured at 360 nm in a spectrophotometric microplate reader (Nippon Molecular Devices Co.; SPECTRAmax250).
Aqueous solutions of various glucose concentrations were prepared and the amounts of carbonyl compounds derived from glucose were measured by the same method as described in (i); a calibration curve of glucose concentration vs. concentration of carbonyl compound was prepared based on this experiment.
Respective glucose concentrations of the samples were determined by using a glucose assay kit (Wako Pure Chemical Industries, Ltd.; Glucose CII-Test Wako). […]

[10] = trapping of 3-deoxyglucosone by guanidine, aminoguanidine and biguanide agents; conditions: 0.1 M phosphate buffer pH 7.4, 37° C., agent 50 μl of 30 mM
Method: (§2) A mixture (50 μl) of glyoxal, methylglyoxal, and 3-deoxyglucosone (1 mM each) was further mixed with 400 μl of 0.1 M phosphate buffer (pH 7.4), and each (50 μl; 30 mM) of guanidine, aminoguanidine, or a biguanide agent. The resulting mixture was incubated at 37° C. Biguanide agents used were metformin, buformin, and phenformin. After the incubation, glyoxal, methylglyoxal, and 3-deoxyglucosone were converted to quinoxaline derivatives by using o-phenylenediamine, and then the respective concentrations were determined by high performance liquid chromatography.

[11] = trapping of methylglyoxal by guanidine, aminoguanidine and biguanide agents; conditions: 0.1 M phosphate buffer pH 7.4, 37° C., agent 50 μl of 30 mM
Method: as §2

[12] = subcutaneously administered, mouse; cited from earlier work
[13] = trapping of methylglyoxal by albumin; conditions: 0.1 M phosphate buffer pH 7.4, 37° C., 50 μl of 100 mg/ml
Method: (§3) A solution (50 μl) consisting of glyoxal, methylglyoxal, and 3-deoxyglucosone (1 mM each) was further mixed with 400 μl of 0.1 M phosphate buffer (pH 7.4), 50 μl of 100 mg/ml bovine serum albumin solution, and the resulting mixture was incubated at 37° C. After the incubation, glyoxal, methylglyoxal, and 3-deoxyglucosone were converted to quinoxaline derivatives by using o-phenylenediamine, and then the respective concentrations were determined by high performance liquid chromatography.

[14] = trapping of glyoxal by albumin; conditions: 0.1 M phosphate buffer pH 7.4, 37° C., 50 μl of 100 mg/ml
Method: as §3

Molecule: O=CC=O [glyoxal]
VEGF mRNA expression ([1]; 0 to 400 μM): neither glyoxal nor 3-deoxyglucosone modified VEGF expression

peritoneal tissue on optical microscopy [2]: unaffected
Molecule: CC(=O)C=O [methylglyoxal]
VEGF mRNA expression in parietal peritoneum ([2]; P<0.05): increased significantly
VEGF mRNA expression ([1]; 400 μM, P<0.0005): stimulated VEGF mRNA expression
VEGF mRNA expression [3]: rose in a dose-dependent manner
VEGF protein released into culture supernatant [4]: dose-dependent increase of VEGF

Molecule: O=CC(=O)C[C@H](O)[C@H](O)CO [3-deoxyglucosone]
VEGF mRNA expression ([1]; 0 to 400 μM): neither glyoxal nor 3-deoxyglucosone modified VEGF expression

Molecule: N=C(N)NN [aminoguanidine]
generation of carbonyl compounds [5]: effectively inhibited the generation of carbonyl compounds in a concentration-dependent manner
generation of pentosidine [6]: inhibit the generation of pentosidine in a concentration-dependent manner
half-lethal dose [7]: 1258 mg/kg
generation of 5-HMF ([8]; peritoneal dialysate acidic pH (pH 5.3)): effectively inhibited the generation of 5-HMF in a concentration-dependent manner
generation of 5-HMF ([8]; peritoneal dialysate neutral pH (pH 7.0)): effectively inhibited the generation of 5-HMF in a concentration-dependent manner
amounts of carbonyl compounds other than glucose [9]: decreased
concentration of 3-deoxyglucosone [10]: markedly reducing the concentration of 3-deoxyglucosone
concentration of methylglyoxal [11]: markedly reducing the concentration of methylglyoxal; also recorded: drastically reduced the concentration of methylglyoxal
half-lethal dose [12]: 963 mg/kg

Molecule: N=C(N)N [Guanidine, guanidine]
concentration of methylglyoxal [11]: markedly reducing the concentration of methylglyoxal

Molecule: Bovine serum albumin: bovine serum albumin solution, 100 mg/ml; SH group-containing protein
concentration of methylglyoxal [13]: markedly reducing the concentrations of glyoxal and methylglyoxal
concentration of glyoxal [14]: markedly reducing the concentrations of glyoxal and methylglyoxal
